According to patent US20260355182A1, “ISOQUINOLINE DERIVATIVE, SYNTHESIS METHOD THEREFOR, AND USE THEREOF” (Harbin Gloria Pharmaceuticals Co., Ltd., priority 2023, published 2026):

Experiments:
db/db mice [1] = assay: Long-term hypoglycemic and weight-loss effects in db/db mice, drinking water; format: in vivo; conditions: drinking water 7 days
Description: The hypoglycemic effect of the novel isoquinoline derivatives via intraperitoneal injection lasted no more than 6 hours. To determine the long-term hypoglycemic effect of T6, T6 was added to drinking water and administered to mice continuously for one week.
After 7 days of treatment, changes in glycated hemoglobin (HbA1c) level, insulin level in mouse blood, and body weight, were measured.

Pgk1 [2] = target: T1, Pgk1 (Homo sapiens, UniProt P00558); assay: Affinity for Pgk1 protein (Biacore T200); format: binding
T1 sequence (P00558 1-417): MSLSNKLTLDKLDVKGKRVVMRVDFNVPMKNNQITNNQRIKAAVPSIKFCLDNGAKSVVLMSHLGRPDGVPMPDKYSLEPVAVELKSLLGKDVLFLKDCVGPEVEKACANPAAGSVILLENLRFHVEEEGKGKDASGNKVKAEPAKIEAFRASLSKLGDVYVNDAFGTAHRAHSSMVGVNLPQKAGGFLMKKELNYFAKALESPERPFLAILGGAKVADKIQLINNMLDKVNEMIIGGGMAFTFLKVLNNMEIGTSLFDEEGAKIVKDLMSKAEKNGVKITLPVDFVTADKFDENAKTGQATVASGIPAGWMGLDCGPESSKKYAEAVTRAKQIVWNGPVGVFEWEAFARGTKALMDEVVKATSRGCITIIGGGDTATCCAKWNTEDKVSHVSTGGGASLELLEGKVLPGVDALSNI
Description: Example 30: Determination of Affinities of Compounds for Pgk1 Protein
Purified Pgk1 protein (with a concentration of 1 mg/mL) was immobilized on a Biacore T200 chip. […] The obtained curves can calculate parameters such as affinity and Rmax.

db/db mice [3] = assay: Acute glucose-response assay in non-fasted db/db mice; format: in vivo; conditions: s.c., 2 h; TZ 0.5, liraglutide 0.6, T6 0.5 mg/Kg
Description: The db/db mice were used to evaluate the glucose-lowering activity of compound T6 in comparison with reference metabolic agents (TZ 0.5 mg/Kg, liraglutide 0.6 mg/Kg, T6 0.5 mg/Kg). In FIG. 15, A) for the acute glucose-response assay, drugs were administered to non-fasted db/db mice. Immediately after drug administration (s. c.), mice were deprived of food and water, and blood glucose levels were measured from tail blood samples 2 h later. The relative percentage change in blood glucose was calculated by comparing glucose levels before and after treatment in the same animal. […] HbA1c levels were then measured using a glycated hemoglobin A1c enzyme-linked immunosorbent assay, also referred to as a mouse HbA1c ELISA assay. […] Data are presented as mean±error bars, with individual circles representing individual animals. Statistical significance is indicated as P<0.001 (**) and P<0.0001 (***).

SOD1G93A transgenic mice = assay: High-copy-number SOD1G93A ALS model mice, body weight and survival; format: in vivo; conditions: 0.2 mg/kg i.p. once daily from 80 days of age
Description: High-copy-number SOD1G93A transgenic mice, a genetic model of amyotrophic lateral sclerosis (ALS), were treated with compound T6 or vehicle control beginning at 80 days of age. T6 was administered once daily by intraperitoneal injection at 0.2 mg/kg, and control animals received PBS. Disease-associated slowing of movement was observed beginning at approximately 90 days of age. […] The control group included 7 mice, and the T6-treated group included 5 mice. T6 treatment shifted the survival curve to the right, indicating an extension of survival after initiation of treatment (survival analysis, p=0.072).

Pgk1 [4] = target: T1, Pgk1; assay: In vitro biochemical Pgk1 enzymatic activity assay (NADH production); set-up: GAPDH-coupled NADH assay; conditions: role: activator, 1.6 mM GAP, 1 mM β-NAD, 1 mM ADP
Description: Human Pgk1 cDNA was cloned into the pEASYTM-E2 vector (TransGen Biotech) containing a His tag. Protein expression was induced in BL21(DE3) chemocompetent cells (TransGen Biotech) with 0.5 mM IPTG. After lysing cells in extraction buffer (20 mM sodium phosphate, 500 mM NaCl, 5 mM imidazole, 5% glycerol, protease inhibitor cocktail, pH 7.9), the supernatant was purified with nickel beads (AdarBiotech). The His-tagged Pgk1 was eluted with the elution buffer (20 mM sodium phosphate, 500 mM NaCl, 80 mM imidazole, protease inhibitor cocktail, pH 7.9). The activity of Pgk1 can be measured by monitoring the rate of NADH production, as NADH accumulated as the reaction proceeded. Purified Pgk1-His protein ([…]) was added to the reaction buffer (20 mM Tris, 100 mM NaCl, 2 mM DTT, 0.1 mM MgSO4, 10 mM NaHPO4, pH 8.6), and the substrates (1.6 mM GAP, 1 mM β-NAD, 1 mM ADP, 20 ng/μL GAPDH) was added. […] After reaction for 10 minutes at room temperature, the absorbance wavelength at 339 nm was measured using a microplate reader (Molecular Devices, SpectraMax i3x), and this wavelength corresponds to NADH levels.

[5] = tested on: SK-N-SH cells (Pgk1 knockdown); assay: Seahorse mitochondrial respiration in Pgk1-knockdown and normal SK-N-SH cells; format: cell-based, human; conditions: 10 μM
Description: Cellular mitochondrial stress was detected using a Seahorse XFe analyzer (XFe-24, Seahorse Bioscience, Billerica, MA, UAS) to measure the oxygen consumption rate (OCR). SH-SKN cell lines were seeded in a 24-well plate compatible with the Seahorse XFe analyzer. After 24 hours, cells were treated with DMSO (0.01%) or various drugs (10 μM). Cellular mitochondrial stress was detected 12 hours after drug treatment. For the mitochondrial stress test, 97.2 mL of Seahorse basal medium (Seahorse Bioscience, Billerica, MA, UAS) was taken and heated in a water bath to 37 °C, and 1 mL of a stock solution was added. The stock solution was prepared by mixing the following solutions: 1 mL of 200 mM L-glutamine solution (Sigma), 1 mL of 100 mM pyruvate solution (Sigma), and 800 μL of 2.5 M glucose solution, and the pH of the stock solution was adjusted to 7.4 with 1 M NaOH solution. Before detection, the probe plate was taken out, and 1 mL of XF Carlibrant solution (Seahorse Bioscience) was added to the probe plate. The plate was then incubated overnight in a CO2-free constant temperature incubator at 37 °C. After drug treatment, the cells were removed and washed twice with preheated Seahorse basal medium at 37 °C, ensuring that 500 μL of Seahorse basal medium remained in each well. The cells were incubated in a CO2-free constant temperature incubator at 37 °C for 1 hour. […]

SKN cells (Pgk1 shRNA) = assay: Mitochondrial respiration in SKN cells with Pgk1 shRNA (Seahorse); format: cell-based
Description: SKN cells were transduced with Pgk1 shRNA to reduce endogenous Pgk1 expression and were subsequently treated with vehicle control or compound T6. […] GAPDH was used as a loading control; B) mitochondrial respiration was assessed by Seahorse extracellular flux analysis and is expressed as oxygen consumption rate (OCR; pmol/min/10^4 cells). Oligomycin, FCCP, and rotenone plus antimycin were sequentially added to evaluate basal respiration, ATP-linked respiration, maximal respiratory capacity, and non-mitochondrial respiration. […] In contrast, Pgk1 knockdown reduced mitochondrial respiratory activity and diminished the respiration-enhancing effect of T6. […] Data are presented as mean±SD, with individual points representing replicate measurements. Statistical significance is indicated as **P<0.001; ns, not significant. […] The data support Pgk1 as a functional cellular target mediating the metabolic activity of T6.

Nc1nc(N2CCN(C(=O)[C@H]3CCCO3)CC2)cc2cc3c(cc12)OCC3 [Compound T6]
Glycated hemoglobin (HbA1c) level (db/db mice [1]; metformin 350 mg/kg, terazosin 0.3 mg/kg, T6 1.5 mg/kg): decrease in glycated hemoglobin (HbA1c) level
Long-term hypoglycemic effect versus terazosin and metformin (db/db mice [1]; long-term oral administration): better hypoglycemic effect than that of terazosin and metformin
Kd (Pgk1 [2]; + saturated ADP, read-out: Affinity (KD) in the presence of ADP): > 1 mM
Rmax (Pgk1 [2]; drug alone, amount of small-molecule drug bound): 106 RU
Acute change in blood glucose (db/db mice [3]): marked reduction in blood glucose
Survival (SOD1G93A transgenic mice; vs PBS): delayed mortality
Body weight (SOD1G93A transgenic mice; 81 to 123 days of age): maintained body weight more effectively
Concentration for best activation of Pgk1 (Pgk1 [4]; 20 ng/μL GAPDH, pH 8.6, 10 minutes): 0.1 µM
Inhibition of Pgk1 at the tested concentrations (Pgk1 [4]; all tested concentrations): none of the concentrations can inhibit Pgk1
Basal and maximum respiratory rate, normal cells ([5]; normal (control) cells): activated both the basal respiratory rate and maximum respiratory rate
Basal and maximum respiratory rate, shPgk1 knockdown cells ([5]; shPgk1 knockdown cells): this activity was absent in shPgk1 knockdown cells
Basal respiration and maximal respiration (OCR), Pgk1 shRNA cells (SKN cells (Pgk1 shRNA); Pgk1 shRNA-expressing SKN cells): no significant increase
Basal respiration and maximal respiration (OCR), control cells (SKN cells (Pgk1 shRNA); control SKN cells): significantly increased both basal respiration and maximal respiration
